Source: publication PMC11720699, “Developing Allosteric Chaperones for GBA1-Associated Disorders—An Integrated Computational and Experimental Approach” (International Journal of Molecular Sciences, 2024)
Residue numbers refer to the chain shown, from its start.

Legend:
[1] = biological target: T1, human recombinant GCase (Cerezyme) (Homo sapiens, UniProt P04062, R534H); assay: Surface plasmon resonance (SPR) binding to immobilized GCase; conditions: pH 7.4; for Chi^2 / Offset: SPR fit; for Dose-response / Kd / Rmax: SPR
T1 construct: The human full-length GCase protein (Cerezyme, wild type, not tagged; Genzyme, Naarden, The Netherlands); purchased Genzyme
T1 sequence (P04062 40-536 R534H): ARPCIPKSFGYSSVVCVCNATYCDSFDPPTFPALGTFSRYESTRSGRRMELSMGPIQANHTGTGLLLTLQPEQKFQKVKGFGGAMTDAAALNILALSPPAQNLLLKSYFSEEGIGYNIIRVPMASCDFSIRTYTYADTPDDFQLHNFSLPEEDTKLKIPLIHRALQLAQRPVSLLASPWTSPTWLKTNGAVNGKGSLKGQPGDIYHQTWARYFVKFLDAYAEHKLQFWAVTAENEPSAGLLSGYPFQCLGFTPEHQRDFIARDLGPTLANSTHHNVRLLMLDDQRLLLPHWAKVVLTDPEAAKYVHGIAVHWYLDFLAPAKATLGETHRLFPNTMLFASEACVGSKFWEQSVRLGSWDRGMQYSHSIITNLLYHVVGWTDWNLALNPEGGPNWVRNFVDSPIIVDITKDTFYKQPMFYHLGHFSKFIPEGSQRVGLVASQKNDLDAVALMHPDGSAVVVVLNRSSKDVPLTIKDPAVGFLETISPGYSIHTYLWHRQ
Method: The surface plasmon resonance (SPR) technique is used to detect changes in the refractive index on the surface of a sensor due to changes in mass. […] Binding to GCase by SPR was confirmed for selected compounds using recombinant human GCase protein at a neutral pH of 7.4 (Figure 4A,B). […] Compounds 2 and 3, along with isofagomine (IFG) as a control, were evaluated in an activity assay using lysates from wild-type fibroblasts (Figure 4C).
All SPR experiments were performed at 20 °C using the Biacore T200 (GE Healthcare, Uppsala, Sweden). SPR detects changes in the refractive index on the sensor surface due to mass changes, which helps measure the interaction between the GCase protein (Cerezyme) and the tested compounds.
The human full-length GCase protein (Cerezyme, wild type, not tagged; Genzyme, Naarden, The Netherlands) was immobilized on an SPR CM5 sensor (29149603, GE Healthcare, Chicago, IL, USA) using standard amino coupling with a high protein concentration of 100 µg/mL. A nine-point, 2-fold serial dilution starting from 180 µM of the compound (from a 10 mM stock solution in DMSO) was tested by SPR at pH 7.4 in a buffer containing 10 mM Hepes, 5 mM EDTA, 150 mM NaCl, 0.01% Tween-20, 0.5 mg/mL CM-Dextran, and 5% DMSO. Reference channels included empty, activated, and deactivated channels on the same SPR sensor. The raw SPR signals from the active channel with immobilized GCase were adjusted by subtracting signals from the reference channel and the running buffer (double referenced) and corrected for any DMSO signal mismatch. Binding affinity values were extracted by fitting the SPR data to a four-parameter logarithmic dose-response equation without constraints using GraphPad Prism version 10.2.3.

[2] = biological target: T2, lysosomal GCase (Homo sapiens, UniProt P04062, L483P); assay: In situ lysosomal GCase activity assay (PFB-FDGlu, flow cytometry); assay type: cell-based; conditions: p.L444P biallelic GD fibroblasts, four days
T2 construct: endogenous in cells; host or cells: GD patient fibroblasts, p.L444P/p.L444P
T2 sequence (P04062 40-536 L483P): T1 sequence (P04062 40-536 R534H) with L444P, H495R
Method: To validate the observed chaperoning effect of the compounds, an in situ lysosomal GCase assay was conducted using a fluorescent PFB-FDGlu probe in fibroblasts from GD patients carrying the p.L444P biallelic mutation.
Fibroblasts were seeded into a 12-well plate and treated with compounds for four days. After treatment, the fibroblasts were washed with PBS, and 320 µM PFB-FDGlu in PBS was added for 30 min at 37 °C. The cells were then washed with PBS and detached using trypsin. The trypsinization process was halted by adding cold PBS with 4% FBS. The cells were centrifuged at 1200 rpm for 5 min and washed twice with 200 µL of the previously mentioned buffer. The cell pellet was resuspended in 280 µL of FACS buffer containing DAPI (1:1000 dilution). Flow cytometric analysis was conducted using a Coulter Gallios I flow cytometer (492/516 nm), and the data were analyzed with FlowJo v10.8.1 software.

SMILES | Chi^2 [1] [RU^2] | Offset [1] [RU] | Dose-response [1] | Kd [1] [µM] | Rmax [1] [RU] | effect on lysosomal GCase activity [2]
CN(Cc1ccccc1)Cc1nc(N)nc(Nc2cccc(Br)c2)n1 [Compound 2] | 1.28 | 1.959 | Yes | 29.8 | 35.57 | inhibitory effect that intensified with increasing concentrations
CN(C(=O)c1cc(N)cc(Nc2cccc3c2OCO3)n1)c1ccccc1 [Compound 3] | 2.61 | −1.406 | Yes | 50.7 | 22.73 | dose-dependent enhancement of lysosomal GCase activity
